Drawing on patent US12116388B2, “Amylin receptor agonists” (Novo Nordisk A/S, priority 2022, dated 2024), this text covers EC50 for 5 molecules.

The target in the test is T1, human calcitonin receptor (hCTR) (Homo sapiens, UniProt P30988).
T1 construct: host or cells: BHK (Baby Hamster Kidney), Hollex-1 cell line
T1 sequence (P30988 25-474): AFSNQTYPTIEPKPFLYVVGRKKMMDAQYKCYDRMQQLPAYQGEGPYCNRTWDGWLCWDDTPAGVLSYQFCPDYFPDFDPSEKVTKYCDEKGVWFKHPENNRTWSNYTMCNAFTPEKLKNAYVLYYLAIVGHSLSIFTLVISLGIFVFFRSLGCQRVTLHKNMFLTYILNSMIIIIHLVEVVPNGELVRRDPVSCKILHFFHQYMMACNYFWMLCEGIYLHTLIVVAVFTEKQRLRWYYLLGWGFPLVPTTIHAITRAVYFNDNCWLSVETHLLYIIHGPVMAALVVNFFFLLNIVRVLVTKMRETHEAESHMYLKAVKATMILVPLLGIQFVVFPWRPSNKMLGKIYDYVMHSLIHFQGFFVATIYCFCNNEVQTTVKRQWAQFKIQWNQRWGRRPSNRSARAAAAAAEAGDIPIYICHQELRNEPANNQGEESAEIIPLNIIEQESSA
Briefly: Human calcitonin receptor (hCTR) in vitro potency assay, CRE-luciferase reporter in BHK cells. In kind it is cell-based. Particulars: BHK hCTR/CRE-Luc cells, 3 hours incubation, assay buffer with 1% ovalbumin; read-out: hCalcR potency, EC50. In outline:
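Luciferase signal from a CRE reporter served as the cAMP read-out after 3 h, 37 °C exposure to compound. Cells were stably transfected BHK expressing hCTR, and the buffer was phenol-red-free DMEM with 10 mM HEPES and 1% ovalbumin. Compounds were tested as 7-point, 7-fold dilutions, often from about 10 nM.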

Starred links: 1 amine or outer side, 2 acyl side, 3 side chain; linkers in the order of their positions; H or OH if unused. Residues, ends and D or L forms follow the SMILES beside them. *: point of attachment. C20 diacid = O=C(O)CCCCCCCCCCCCCCCCCCC(=O)*; C18 diacid = O=C(O)CCCCCCCCCCCCCCCCC(=O)*; γGlu = O=C(O)[C@H](CCC(=O)[*:2])N[*:1]

The term EC50 denotes the concentration at which the effect is half-maximal. `CC[C@H](C)[C@H](NC(=O)[C@@H]1CCCN1C(=O)CNC(=O)[C@H](Cc1ccccc1)NC(=O)[C@H](CC(N)=O)NC(=O)[C@H](CC(=O)O)NC(=O)[C@H](CO)NC(=O)[C@H](CO)NC(=O)[C@H](Cc1c[nH]cn1)NC(=O)[C@H](Cc1c[nH]cn1)NC(=O)[C@H](CC(C)C)NC(=O)[C@H](Cc1ccccc1)NC(=O)[C@H](CCC(=O)O)NC(=O)[C@H](C)NC(=O)[C@H](CC(C)C)NC(=O)[C@H](CCCNC(=N)N)NC(=O)[C@H](C)NC(=O)[C@@H](NC(=O)[C@H](CCC(N)=O)NC(=O)[C@H](C)NC(=O)[C@@H](NC(=O)[C@H](CO)NC(=O)[C@H](CC(C)C)NC(=O)[C@H](CCC(N)=O)NC(=O)[C@H](CO)NC(=O)[C@H](C)NC(=O)CC[C@H](NC(=O)CCCCCCCCCCCCCCCCC(=O)O)C(=O)O)[C@@H](C)O)[C@@H](C)O)C(=O)N[C@@H](CC(C)C)C(=O)N1CCC[C@H]1C(=O)N1CCC[C@H]1C(=O)N[C@H](C(=O)N[C@@H](CC(=O)O)C(=O)N[C@H](C(=O)NCC(=O)N[C@@H](CO)C(=O)N[C@@H](CC(N)=O)C(=O)N[C@H](C(=O)N1CCC[C@H]1C(N)=O)[C@@H](C)O)C(C)C)[C@@H](C)O` [Compound 22, N^1-[(4S)-4-carboxy-4-(17-carboxyheptadecanoylamino)butanoyl]-[Ala1,Ser2,Gln3,Leu4,Ser5,Ala7,Gln8,Ala10,Glu14,His17,Asp21,Pro25,Pro28,Pro29,Asp31,Pro37]-human amylin] ({C18 diacid-γGlu}-ASQLSTAQTARLAEFLHHSSDNFGPILPPTDVGSNTP-NH2): the concentration giving a half-maximal response (EC50) was 1.86 pM.

As to `CC[C@H](C)[C@H](NC(=O)[C@H](C)NC(=O)CNC(=O)[C@H](Cc1ccccc1)NC(=O)[C@@H]1CCCN1C(=O)[C@H](CC(=O)O)NC(=O)[C@H](CO)NC(=O)[C@H](CO)NC(=O)[C@H](Cc1c[nH]cn1)NC(=O)[C@H](Cc1c[nH]cn1)NC(=O)[C@H](CC(C)C)NC(=O)[C@H](Cc1ccccc1)NC(=O)[C@H](CCC(=O)O)NC(=O)[C@H](C)NC(=O)[C@H](CC(C)C)NC(=O)[C@H](CCCNC(=N)N)NC(=O)[C@H](C)NC(=O)[C@@H](NC(=O)[C@H](CCC(N)=O)NC(=O)[C@H](C)NC(=O)[C@@H](NC(=O)[C@H](CO)NC(=O)[C@H](CC(C)C)NC(=O)[C@H](Cc1c[nH]cn1)NC(=O)[C@H](CO)NC(=O)[C@H](C)NC(=O)CC[C@H](NC(=O)CCCCCCCCCCCCCCCCC(=O)O)C(=O)O)[C@@H](C)O)[C@@H](C)O)C(=O)N1CCC[C@H]1C(=O)N[C@@H](CO)C(=O)N[C@@H](CO)C(=O)N[C@H](C(=O)N[C@@H](CC(=O)O)C(=O)N[C@H](C(=O)NCC(=O)N1CCC[C@H]1C(=O)N[C@@H](CC(=O)O)C(=O)N[C@H](C(=O)N1CCC[C@H]1C(N)=O)[C@@H](C)O)C(C)C)[C@@H](C)O` [Compound 25, N^1-[(4S)-4-carboxy-4-(17-carboxyheptadecanoylamino)butanoyl]-[Ala1,Ser2,His3,Leu4,Ser5,Ala7,Gln8,Ala10,Glu14,His17,Asp21,Pro22,Pro27,Asp31,Pro34,Asp35,Pro37]-human amylin] ({C18 diacid-γGlu}-ASHLSTAQTARLAEFLHHSSDPFGAIPSSTDVGPDTP-NH2), the 50% effective concentration (EC50) is 1.5 pM.

On to `CC[C@H](C)[C@H](NC(=O)[C@H](C)NC(=O)CNC(=O)[C@H](Cc1ccccc1)NC(=O)[C@@H]1CCCN1C(=O)[C@H](CC(=O)O)NC(=O)[C@H](CO)NC(=O)[C@H](CO)NC(=O)[C@H](Cc1c[nH]cn1)NC(=O)[C@H](Cc1c[nH]cn1)NC(=O)[C@H](CC(C)C)NC(=O)[C@H](Cc1ccccc1)NC(=O)[C@H](CCC(=O)O)NC(=O)[C@H](C)NC(=O)[C@H](CC(C)C)NC(=O)[C@H](CCCNC(=N)N)NC(=O)[C@H](CCC(N)=O)NC(=O)[C@@H](NC(=O)[C@H](CCC(N)=O)NC(=O)[C@H](C)NC(=O)[C@@H](NC(=O)[C@H](CO)NC(=O)[C@H](CC(C)C)NC(=O)[C@H](CO)NC(=O)CNC(=O)[C@H](C)NC(=O)CC[C@H](NC(=O)CCCCCCCCCCCCCCCCC(=O)O)C(=O)O)[C@@H](C)O)[C@@H](C)O)C(=O)N1CCC[C@H]1C(=O)N[C@@H](CO)C(=O)N[C@@H](CO)C(=O)N[C@H](C(=O)N[C@@H](CC(=O)O)C(=O)N[C@H](C(=O)NCC(=O)N1CCC[C@H]1C(=O)N[C@@H](CC(=O)O)C(=O)N[C@H](C(=O)N1CCC[C@H]1C(N)=O)[C@@H](C)O)C(C)C)[C@@H](C)O` [Compound 10, N^1-[(4S)-4-carboxy-4-(17-carboxyheptadecanoylamino)butanoyl]-[Ala1,Gly2,Ser3,Leu4,Ser5,Ala7,Gln8,Glu14,His17,Asp21,Pro22,Pro27,Asp31,Pro34,Asp35,Pro37]-human amylin] ({C18 diacid-γGlu}-AGSLSTAQTQRLAEFLHHSSDPFGAIPSSTDVGPDTP-NH2), for which the EC50 is 1.49 pM.

Regarding `CC[C@H](C)[C@H](NC(=O)[C@H](C)NC(=O)CNC(=O)[C@H](Cc1ccccc1)NC(=O)[C@@H]1CCCN1C(=O)[C@H](CC(=O)O)NC(=O)[C@H](CO)NC(=O)[C@H](CO)NC(=O)[C@H](Cc1c[nH]cn1)NC(=O)[C@H](Cc1c[nH]cn1)NC(=O)[C@H](CC(C)C)NC(=O)[C@H](Cc1ccccc1)NC(=O)[C@H](CCC(=O)O)NC(=O)[C@H](C)NC(=O)[C@H](CC(C)C)NC(=O)[C@H](CCCNC(=N)N)NC(=O)[C@H](CCC(N)=O)NC(=O)[C@@H](NC(=O)[C@H](CCC(N)=O)NC(=O)[C@H](C)NC(=O)[C@@H](NC(=O)[C@H](CO)NC(=O)[C@H](CC(C)C)NC(=O)[C@H](Cc1c[nH]cn1)NC(=O)[C@H](CO)NC(=O)[C@H](C)NC(=O)CC[C@H](NC(=O)CCCCCCCCCCCCCCCCC(=O)O)C(=O)O)[C@@H](C)O)[C@@H](C)O)C(=O)N1CCC[C@H]1C(=O)N[C@@H](CO)C(=O)N[C@@H](CO)C(=O)N[C@H](C(=O)N[C@@H](CC(=O)O)C(=O)N[C@H](C(=O)NCC(=O)N1CCC[C@H]1C(=O)N[C@@H](CC(=O)O)C(=O)N[C@H](C(=O)N1CCC[C@H]1C(N)=O)[C@@H](C)O)C(C)C)[C@@H](C)O` [Compound 8, N^1-[(4S)-4-carboxy-4-(17-carboxyheptadecanoylamino)butanoyl]-[Ala1,Ser2,His3,Leu4,Ser5,Ala7,Gln8,Glu14,His17,Asp21,Pro22,Pro27,Asp31,Pro34,Asp35,Pro37]-human amylin] ({C18 diacid-γGlu}-ASHLSTAQTQRLAEFLHHSSDPFGAIPSSTDVGPDTP-NH2), the EC50 is 1.44 pM.

For the molecule `CC[C@H](C)[C@H](NC(=O)[C@@H]1CCCN1C(=O)CNC(=O)[C@H](Cc1ccccc1)NC(=O)[C@H](Cc1c[nH]cn1)NC(=O)[C@H](Cc1c[nH]cn1)NC(=O)[C@H](CC(C)C)NC(=O)[C@H](Cc1ccccc1)NC(=O)[C@H](CCC(=O)O)NC(=O)[C@H](C)NC(=O)[C@H](CC(C)C)NC(=O)[C@H](CCCNC(=N)N)NC(=O)[C@H](CCC(N)=O)NC(=O)[C@@H](NC(=O)[C@H](CCC(N)=O)NC(=O)[C@H](C)NC(=O)[C@@H](NC(=O)[C@H](CO)NC(=O)[C@H](CC(C)C)NC(=O)[C@H](Cc1c[nH]cn1)NC(=O)[C@H](CO)NC(=O)[C@H](C)NC(=O)CC[C@H](NC(=O)CCCCCCCCCCCCCCCCCCC(=O)O)C(=O)O)[C@@H](C)O)[C@@H](C)O)C(=O)N[C@@H](CC(C)C)C(=O)N1CCC[C@H]1C(=O)N1CCC[C@H]1C(=O)N[C@H](C(=O)N[C@@H](CC(=O)O)C(=O)N[C@H](C(=O)NCC(=O)N[C@@H](CO)C(=O)N[C@@H](CCC(=O)O)C(=O)N[C@H](C(=O)N1CCC[C@H]1C(N)=O)[C@@H](C)O)C(C)C)[C@@H](C)O` [Compound 4, N^1-[(4S)-4-carboxy-4-(19-carboxynonadecanoylamino)butanoyl]-[Ala1,Ser2,His3,Leu4,Ser5,Ala7,Gln8,Glu14,His17,Pro25,Pro28,Pro29,Asp31,Glu35,Pro37],des-(19-22)-human amylin] ({C20 diacid-γGlu}-ASHLSTAQTQRLAEFLHHFGPILPPTDVGSETP-NH2), the 50% effective concentration (EC50) was 1.44 pM.
